Usually IC50 stands for the concentration that gives 50% inhibition.

Numbered stars: 1 amine (or outer) side, 2 acyl side, 3 side chain; on linkers, the order of the positions; unused ones are H or OH. Bridge positions count the residues as written; N and C are the ends. Square brackets hold non-standard residues; d marks the D form. Peptide text beside a SMILES is read from it. * marks the point of attachment. ξ: configuration not given here. Ala(morpholin-4-yl) = N[C@@H](CN1CCOCC1)C(=O)O; Phe(4-COOH) = N[C@@H](Cc1ccc(C(=O)O)cc1)C(=O)O; X16 = O=C([C@H](Cc1ccc2cnccc2c1)N[*:1])[*:2]; Bip = N[C@@H](Cc1ccc(-c2ccccc2)cc1)C(=O)O; Phe(3-F) = N[C@@H](Cc1cccc(F)c1)C(=O)O; Phe(3-Me) = Cc1cccc(C[C@H](N)C(=O)O)c1; 1Nal = N[C@@H](Cc1cccc2ccccc12)C(=O)O; Val(3-OH) = CC(C)(O)[C@H](N)C(=O)O; 4Pal = N[C@@H](Cc1ccncc1)C(=O)O; Cha = N[C@@H](CC1CCCCC1)C(=O)O; Cit = NC(=O)NCCC[C@H](N)C(=O)O; Ile(3ξ) = CCC(C)[C@H](N)C(=O)O; Thr(3ξ) = CC(O)[C@H](N)C(=O)O; Tle = CC(C)(C)[C@H](N)C(=O)O; Carboxymethyl = O=C(O)C*; NMeA = CN[C@@H](C)C(=O)O; Orn = NCCC[C@H](N)C(=O)O; Dab = NCC[C@H](N)C(=O)O

In this assay the target is T1, PE-labeled human PD-L1-Ig binding to Jurkat cell line over-expressing human PD-1 (Jurkat-PD-1) (Homo sapiens, UniProt Q15116).
T1 construct: expressed in transfected cells; host or cells: Jurkat
T1 sequence (Q15116 25-288): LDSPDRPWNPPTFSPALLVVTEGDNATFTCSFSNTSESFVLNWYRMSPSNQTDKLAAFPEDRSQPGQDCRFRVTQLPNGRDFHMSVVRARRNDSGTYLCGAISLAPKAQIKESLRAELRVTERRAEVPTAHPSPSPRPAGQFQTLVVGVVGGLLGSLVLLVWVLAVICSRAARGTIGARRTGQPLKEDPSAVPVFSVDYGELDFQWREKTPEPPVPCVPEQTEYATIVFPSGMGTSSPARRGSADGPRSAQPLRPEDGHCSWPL
Description: Jurkat-PD-1 Cell Binding High-Content Screening Assay (CBA): Method 1. The note with it: Jurkat-hPD-1 cells, PE-labeled PD-L1-Ig 20 nM final; read-out: Jurkat HPDL1 PD1 IC50 (uM) (Method 1).
In the case of `CC(C)C[C@@H]1NC(=O)[C@H](CCCN)NC(=O)[C@@H](CC(C)C)NC(=O)[C@H](C)N(C)C(=O)[C@H](CCCNC(=N)N)NC(=O)[C@H](Cc2ccc(-c3ccccc3)cc2)NC(=O)[C@H](C(C)C)NC(=O)[C@H](Cc2c[nH]c3ccccc23)NC(=O)[C@H](CC(=O)O)NC(=O)[C@H](Cc2ccc(OCC(=O)O)cc2)NC(=O)[C@H](Cc2cnc[nH]2)NC(=O)CSC[C@@H](C(=O)N[C@@H](C)C(N)=O)NC(=O)[C@H]([C@@H](C)O)NC(=O)[C@H](C(C)C)NC1=O` [Compound 1148] ({CH2CO}-HY(Carboxymethyl)DWV[Bip]R[NMeA][dL][Orn]LVTCA-NH2; thioether N-14), the IC50 was 0.05 µM. The result for `CC(C)C[C@@H]1NC(=O)[C@H](Cc2c[nH]c3ccccc23)NC(=O)[C@H](CC(=O)O)NC(=O)[C@H](Cc2ccc(O)cc2)NC(=O)[C@H](Cc2ccccc2)NC(=O)CSC[C@@H](C(=O)NCC(N)=O)NC(=O)[C@H](CO)NC(=O)[C@H](C(C)C)NC(=O)[C@H](CC(C)C)NC(=O)[C@H](CC(=O)O)NC(=O)[C@H](CC(C)C)NC(=O)[C@H](C)N(C)C(=O)[C@H](C(C)C)NC(=O)[C@H](Cc2ccc(-c3ccccc3)cc2)NC1=O` [Compound 1824] ({CH2CO}-FYDWL[Bip]V[NMeA]LDLVSCG-NH2; thioether N-14) reads 0.63 µM; that for `CC(=O)NCCCC[C@@H]1NC(=O)[C@H](Cc2ccc(-c3ccccc3)cc2)NC(=O)[C@H](Cc2ccc(O)cc2)NC(=O)[C@H](Cc2c[nH]c3ccccc23)NC(=O)[C@H](CC(=O)O)NC(=O)[C@H](Cc2ccc(OCC(=O)O)cc2)NC(=O)[C@H](C(C)O)NC(=O)CSC[C@@H](C(N)=O)NC(=O)[C@H](C(C)O)NC(=O)[C@H](C(C)C)NC(=O)[C@H](CC2CCCCC2)NC(=O)[C@H](CCN)NC(=O)[C@@H](CC(C)C)NC(=O)[C@H](C)N(C)C1=O` (stereo partly drawn) [Compound 2254] ({CH2CO}-[Thr(3ξ)]Y(Carboxymethyl)DWY[Bip]K(Ac)[NMeA][dL][Dab][Cha]V[Thr(3ξ)]C-NH2; thioether N-14), 0.16 µM; that for `Cc1cccc(C[C@@H]2NC(=O)[C@H](CC(=O)O)NC(=O)[C@H](Cc3ccc(OCC(=O)O)cc3)NC(=O)[C@H](C(C)O)NC(=O)CSC[C@@H](C(N)=O)NC(=O)[C@H](C(C)O)NC(=O)[C@H](C(C)C)NC(=O)[C@H](CC3CCCCC3)NC(=O)[C@H](CCN)NC(=O)[C@@H](CC(C)C)NC(=O)[C@H](C)N(C)C(=O)[C@H](Cc3ccc(OCC(=O)O)cc3)NC(=O)[C@H](Cc3ccc(-c4ccccc4)cc3)NC(=O)[C@H](Cc3ccc(C(=O)O)cc3)NC2=O)c1` (stereo partly drawn) [Compound 2249] ({CH2CO}-[Thr(3ξ)]Y(Carboxymethyl)D[Phe(3-Me)][Phe(4-COOH)][Bip]Y(Carboxymethyl)[NMeA][dL][Dab][Cha]V[Thr(3ξ)]C-NH2; thioether N-14), 0.08 µM. As for `CC(C)C[C@@H]1NC(=O)[C@H](CCCCN)NC(=O)[C@@H](CC(C)C)NC(=O)[C@H](C)N(C)C(=O)[C@H](CCCNC(N)=O)NC(=O)[C@H](Cc2ccc(-c3ccccc3)cc2)NC(=O)[C@H](C(C)C)NC(=O)[C@H](Cc2c[nH]c3ccccc23)NC(=O)[C@H](CC(=O)O)NC(=O)[C@H](Cc2ccc(O)cc2)NC(=O)[C@H](CC(N)=O)NC(=O)CSC[C@@H](C(=O)NCC(N)=O)NC(=O)[C@H]([C@@H](C)O)NC(=O)[C@H](C(C)C)NC1=O` [Compound 1475] ({CH2CO}-NYDWV[Bip][Cit][NMeA][dL]KLVTCG-NH2; thioether N-14), the figure is 0.05 µM; as for `CC(C)C[C@@H]1NC(=O)[C@H](CCCNC(=N)N)NC(=O)[C@H](Cc2cccc3ccccc23)NC(=O)[C@H](C)N(C)C(=O)[C@H](CCCNC(=N)N)NC(=O)[C@H](Cc2ccc(-c3ccccc3)cc2)NC(=O)[C@H](C(C)C)NC(=O)[C@H](Cc2c[nH]c3ccccc23)NC(=O)[C@H](CC(=O)O)NC(=O)[C@H](Cc2ccc(O)cc2)NC(=O)[C@H](CC(N)=O)NC(=O)CSC[C@@H](C(=O)N[C@@H](C)C(N)=O)NC(=O)[C@H]([C@@H](C)O)NC(=O)[C@H](C(C)C)NC1=O` [Compound 1185] ({CH2CO}-NYDWV[Bip]R[NMeA][1Nal]RLVTCA-NH2; thioether N-14), 0.35 µM. As for `CC(=O)NCCCC[C@@H]1NC(=O)[C@H](Cc2ccc(-c3ccccc3)cc2)NC(=O)[C@H](Cc2ccc(O)cc2)NC(=O)[C@H](Cc2cccc(C)c2)NC(=O)[C@H](CC(=O)O)NC(=O)[C@H](Cc2ccc(OCC(=O)O)cc2)NC(=O)[C@H](C(C)O)NC(=O)CSC[C@@H](C(=O)N[C@@H](CO)C(N)=O)NC(=O)[C@H](C(C)O)NC(=O)[C@H](C(C)C)NC(=O)[C@H](CC2CCCCC2)NC(=O)[C@H](CCN)NC(=O)[C@@H](CC(C)C)NC(=O)[C@H](C)N(C)C1=O` (stereo partly drawn) [Compound 2119] ({CH2CO}-[Thr(3ξ)]Y(Carboxymethyl)D[Phe(3-Me)]Y[Bip]K(Ac)[NMeA][dL][Dab][Cha]V[Thr(3ξ)]CS-NH2; thioether N-14), the figure is 0.02 µM. On to `CC(C)C[C@@H]1NC(=O)[C@H](CCN)NC(=O)[C@@H](CC(C)C)NC(=O)[C@H](C)N(C)C(=O)[C@H](CCCNC(N)=O)NC(=O)[C@H](Cc2ccc(-c3ccccc3)cc2)NC(=O)[C@H](C(C)C)NC(=O)[C@H](Cc2c[nH]c3ccccc23)NC(=O)[C@H](CC(=O)O)NC(=O)[C@H](Cc2ccc(O)cc2)NC(=O)[C@H](Cc2ccc3cnccc3c2)NC(=O)CSC[C@@H](C(=O)N[C@@H](C)C(N)=O)NC(=O)[C@H](C(C)O)NC(=O)[C@H](C(C)C)NC1=O` (stereo partly drawn) [Compound 2037] ({CH2CO}-[X16]YDWV[Bip][Cit][NMeA][dL][Dab]LV[Thr(3ξ)]CA-NH2; thioether N-14), for which the IC50 is 0.02 µM.

In the case of `CC(C)C[C@@H]1NC(=O)[C@H](Cc2c[nH]c3ccccc23)NC(=O)[C@H](CC(=O)O)NC(=O)[C@H](Cc2ccc(C(=O)O)cc2)NC(=O)[C@H](Cc2ccc(OCC(=O)O)cc2)NC(=O)CSC[C@@H](C(=O)N[C@@H](CC(N)=O)C(N)=O)NC(=O)[C@H](CO)NC(=O)[C@H](C(C)(C)C)NC(=O)[C@H](CC2CCCCC2)NC(=O)[C@H](CCN)NC(=O)[C@@H](CC(C)C)NC(=O)[C@H](C)N(C)C(=O)[C@H](C(C)C)NC(=O)[C@H](Cc2ccc(-c3ccccc3)cc2)NC1=O` [Compound 1914] ({CH2CO}-Y(Carboxymethyl)[Phe(4-COOH)]DWL[Bip]V[NMeA][dL][Dab][Cha][Tle]SCN-NH2; thioether N-14), the IC50 was determined as 0.01 µM. As for `CC(C)C[C@H]1NC(=O)[C@H](C)N(C)C(=O)[C@H](C(C)(C)O)NC(=O)[C@H](Cc2ccc(-c3ccccc3)cc2)NC(=O)[C@H](C(C)(C)O)NC(=O)[C@H](Cc2c[nH]c3ccccc23)NC(=O)[C@H](CC(=O)O)NC(=O)[C@H](Cc2ccc(C(=O)O)cc2)NC(=O)[C@H](Cc2ccc(OCC(=O)O)cc2)NC(=O)CSC[C@@H](C(=O)N[C@@H](CCN)C(N)=O)NC(=O)[C@H](CCC(=O)O)NC(=O)[C@H](C(C)(C)O)NC(=O)[C@H](CC2CCCCC2)NC(=O)[C@H](CCN)NC1=O` [Compound 1713] ({CH2CO}-Y(Carboxymethyl)[Phe(4-COOH)]DW[Val(3-OH)][Bip][Val(3-OH)][NMeA][dL][Dab][Cha][Val(3-OH)]EC[Dab]-NH2; thioether N-14), the figure is 0.13 µM; as for `CCC(C)[C@@H]1NC(=O)[C@H](Cc2ccc(-c3ccccc3)cc2)NC(=O)[C@H](C(C)C)NC(=O)[C@H](Cc2cccc(C)c2)NC(=O)[C@H](CC(=O)O)NC(=O)[C@H](Cc2ccc(OCC(=O)O)cc2)NC(=O)[C@H](Cc2ccncc2)NC(=O)CSC[C@@H](C(=O)N[C@@H](CCCN)C(N)=O)NC(=O)[C@H](C(C)O)NC(=O)[C@H](C(C)(C)O)NC(=O)[C@H](CC2CCCCC2)NC(=O)[C@H](CCN)NC(=O)[C@@H](CC(C)C)NC(=O)[C@H](C)N(C)C1=O` (stereo partly drawn) [Compound 2145] ({CH2CO}-[4Pal]Y(Carboxymethyl)D[Phe(3-Me)]V[Bip][Ile(3ξ)][NMeA][dL][Dab][Cha][Val(3-OH)][Thr(3ξ)]C[Orn]-NH2; thioether N-14), 0.01 µM. The result for `Cc1cccc(C[C@@H]2NC(=O)[C@H](CC(=O)O)NC(=O)[C@H](Cc3ccc(OCC(=O)O)cc3)NC(=O)[C@H](CN3CCOCC3)NC(=O)CSC[C@@H](C(=O)N[C@@H](CCN)C(N)=O)NC(=O)[C@H](CCCN)NC(=O)[C@H](C(C)C)NC(=O)[C@H](Cc3cccc(F)c3)NC(=O)[C@H](CCN)NC(=O)[C@@H](CC(C)C)NC(=O)[C@H](C)N(C)C(=O)[C@H](CCC(N)=O)NC(=O)[C@H](Cc3ccc(-c4ccccc4)cc3)NC(=O)[C@H](Cc3ccc(C(=O)O)cc3)NC2=O)c1` [Example 2294] ({CH2CO}-[Ala(morpholin-4-yl)]Y(Carboxymethyl)D[Phe(3-Me)][Phe(4-COOH)][Bip]Q[NMeA][dL][Dab][Phe(3-F)]V[Orn]C[Dab]-NH2; thioether N-14) reads 0.95 µM. As for `Cc1cccc(C[C@@H]2NC(=O)[C@H](CC(=O)O)NC(=O)[C@H](Cc3ccc(OCC(=O)O)cc3)NC(=O)[C@H](C(C)O)NC(=O)CSC[C@@H](C(=O)N[C@@H](CCN)C(N)=O)NC(=O)[C@H](C(C)O)NC(=O)[C@H](C(C)(C)O)NC(=O)[C@H](CC3CCCCC3)NC(=O)[C@H](CCN)NC(=O)[C@@H](CC(C)C)NC(=O)[C@H](C)N(C)C(=O)[C@H](Cc3ccc(OCC(=O)O)cc3)NC(=O)[C@H](Cc3ccc(-c4ccccc4)cc3)NC(=O)[C@H](Cc3ccc(C(=O)O)cc3)NC2=O)c1` (stereo partly drawn) [Compound 2148] ({CH2CO}-[Thr(3ξ)]Y(Carboxymethyl)D[Phe(3-Me)][Phe(4-COOH)][Bip]Y(Carboxymethyl)[NMeA][dL][Dab][Cha][Val(3-OH)][Thr(3ξ)]C[Dab]-NH2; thioether N-14), the figure is 0.01 µM; as for `CC[C@H](C)[C@@H]1NC(=O)[C@H](Cc2ccc(-c3ccccc3)cc2)NC(=O)[C@H](C(C)C)NC(=O)[C@H](Cc2c[nH]c3ccccc23)NC(=O)[C@H](CC(=O)O)NC(=O)[C@H](Cc2ccc(O)cc2)NC(=O)[C@H](Cc2ccc(OCC(=O)O)cc2)NC(=O)CSC[C@@H](C(=O)N[C@@H](C)C(N)=O)NC(=O)[C@H]([C@@H](C)O)NC(=O)[C@H](C(C)C)NC(=O)[C@H](CC2CCCCC2)NC(=O)[C@H](CCCNC(=N)N)NC(=O)[C@@H](CC(C)C)NC(=O)[C@H](C)N(C)C1=O` [Compound 1493] ({CH2CO}-Y(Carboxymethyl)YDWV[Bip]I[NMeA][dL]R[Cha]VTCA-NH2; thioether N-14), 0.03 µM.

For the origin of these results see patent US20240409585A1, “MACROCYCLIC IMMUNOMODULATORS” (priority 2021, published 2024).
